Some test systems named below: OVCAR-3; UACC-257; MOLT-4; COLO 205; A498; NCI-H522; DU-145; SR; MDA-MB-435; SF-268; MDA-MB-231; RXF 393; K562; NCI-H226; MCF7; IGROV-1; UO-31; HL-60; CAKI-1; Malme-3M.
What all share (test): growth of human tumour cells (NCI), 48 h

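Assay format: 96-well plates, 48-hour exposure. At the GI50, growth is halved.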 Calls of active or inactive are those of the source. Rule as the data show it: active = GI50 up to about 1.1 µM and inactive = higher. Bounds are passed on as bounds.

As to `CC12CCC(Br)C(C)(C)C1CC=C1C(=O)OCC1O2` (centres undefined), the GI50 is 16.9 µM (inactive) with OVCAR-3; 12.4 µM (inactive) with UACC-257; 7.05 µM (inactive) in the assay with MOLT-4; 18.2 µM (inactive) in the assay with COLO 205; 12 µM (inactive) in the assay with A498; 3.52 µM (inactive) in the assay on NCI-H522. Moreover, the GI50 with DU-145 is 12 µM (inactive); in the assay with SR it was 5.15 µM (inactive); with MDA-MB-435 it was 12 µM (inactive); in the assay on SF-268 it was 14.1 µM (inactive); in the assay on MDA-MB-231 it was 14.4 µM (inactive); with RXF 393, 11.1 µM (inactive). Besides, the GI50 with K562 was 12.7 µM (inactive); in the assay on NCI-H226, 10.1 µM (inactive); in the assay with MCF7, 6.07 µM (inactive); with IGROV-1, 3.72 µM (inactive); in the assay with UO-31, 8.13 µM (inactive); in the assay with HL-60, 1.84 µM (inactive). For the same compound, the GI50 in the assay with CAKI-1 was 11.6 µM (inactive).

Turning to `O=c1[nH]c2ccccc2c(=O)n1/N=C\c1ccccc1O`, the GI50 in the assay with OVCAR-3, in the assay with UACC-257, with MOLT-4, in the assay on COLO 205, in the assay on A498 and in the assay with DU-145 was > 100 µM (inactive) in each case. The GI50 in the assay on SR is > 100 µM (inactive); in the assay with MDA-MB-435 it was > 100 µM (inactive); with SF-268 it was 58.6 µM (inactive); in the assay with MDA-MB-231, > 100 µM (inactive); in the assay with K562, > 100 µM (inactive); in the assay with NCI-H226, > 100 µM (inactive). The GI50 is > 100 µM (inactive) with MCF7; > 100 µM (inactive) in the assay with IGROV-1; > 100 µM (inactive) in the assay with UO-31; 36.1 µM (inactive) in the assay with HL-60; > 100 µM (inactive) in the assay with CAKI-1.

Regarding `COC1=CC(=O)C2=C(C1=O)[C@H]1CC[C@]3(C)[C@@H](O)CC[C@H]3[C@@H]1CC2`, the GI50 with OVCAR-3 is 17.9 µM (inactive); in the assay on UACC-257, 16.4 µM (inactive); in the assay on MOLT-4, 3.48 µM (inactive); in the assay on COLO 205, 10.7 µM (inactive); in the assay on A498 it was 52.8 µM (inactive); with NCI-H522, 17.9 µM (inactive). For the same compound, the GI50 in the assay with DU-145 is 17.2 µM (inactive); with SR it was 23.3 µM (inactive); with MDA-MB-435, 17.9 µM (inactive); in the assay with SF-268, 17.3 µM (inactive); with MDA-MB-231, 2.21 µM (inactive); in the assay with RXF 393, 20.8 µM (inactive). Also, the GI50 in the assay with K562 was 28.9 µM (inactive); in the assay on NCI-H226 it was 17.7 µM (inactive); with MCF7 it was 17 µM (inactive); with IGROV-1 it was 21.9 µM (inactive); in the assay with UO-31 it was 20.7 µM (inactive); in the assay on HL-60, 13 µM (inactive). Also, the GI50 in the assay on CAKI-1 is 25 µM (inactive).

In the case of `CC#CC#C/C=C1/O[C@]2(CCC(OC(=O)CC(C)C)CO2)[C@@H]2O[C@H]12` (some centres undefined), the GI50 with OVCAR-3 was 21.5 µM (inactive); with UACC-257 it was 30.3 µM (inactive); with MOLT-4, 18.7 µM (inactive); in the assay with A498, > 100 µM (inactive); with NCI-H522, 19.3 µM (inactive); with DU-145 it was 42.5 µM (inactive). Also, the GI50 was 28.1 µM (inactive) with SR; 21.1 µM (inactive) in the assay on MDA-MB-435; 24.4 µM (inactive) in the assay on SF-268; 21.8 µM (inactive) with Malme-3M; 24 µM (inactive) with MDA-MB-231; 21.7 µM (inactive) in the assay on RXF 393. For the same compound, the GI50 is 31.3 µM (inactive) in the assay with K562; 33 µM (inactive) with MCF7; 91.4 µM (inactive) in the assay with IGROV-1; 18.9 µM (inactive) with UO-31; 19.7 µM (inactive) in the assay on HL-60; 18.2 µM (inactive) in the assay on CAKI-1.

On to `CC1=NC(=Cc2ccccc2O)C(=O)N1n1c(-c2ccccc2)nc2ccccc2c1=O`, for which the GI50 in the assay with OVCAR-3 is 26.7 µM (inactive); in the assay on UACC-257 it was 41.9 µM (inactive); in the assay with MOLT-4 it was 20.6 µM (inactive); with COLO 205, 34.5 µM (inactive); in the assay with A498, 62.8 µM (inactive); in the assay with NCI-H522, 62.8 µM (inactive). Further, the GI50 with DU-145 is 29.1 µM (inactive); with SR, 32.5 µM (inactive); in the assay with MDA-MB-435, 46.9 µM (inactive); in the assay with SF-268 it was 33.7 µM (inactive); with Malme-3M it was 80.5 µM (inactive); in the assay on MDA-MB-231 it was 33.2 µM (inactive). Besides, the GI50 was 31 µM (inactive) in the assay with RXF 393; 30.5 µM (inactive) in the assay with K562; 51.1 µM (inactive) in the assay with NCI-H226; 25.6 µM (inactive) in the assay with MCF7; 32.1 µM (inactive) in the assay on IGROV-1; 32.9 µM (inactive) in the assay with UO-31. The GI50 in the assay with HL-60 was 35.6 µM (inactive).

Turning to `Cc1cc(-c2nc3cc(F)c(F)cc3s2)ccc1N`, the GI50 was > 50.5 µM (inactive) in the assay on OVCAR-3; > 73.1 µM (inactive) with UACC-257; > 49.9 µM (inactive) in the assay with MOLT-4; 23.7 µM (inactive) in the assay with COLO 205; > 100 µM (inactive) in the assay on A498; 48.6 µM (inactive) with NCI-H522. Moreover, the GI50 in the assay on DU-145 is > 67.6 µM (inactive); in the assay with SR it was > 100 µM (inactive); with MDA-MB-435 it was > 55.3 µM (inactive); with SF-268 it was > 100 µM (inactive); in the assay on Malme-3M, > 100 µM (inactive); in the assay with MDA-MB-231, > 100 µM (inactive). For the same compound, the GI50 is 58.3 µM (inactive) in the assay with RXF 393; > 42.5 µM (inactive) in the assay on K562; < 0.0123 µM (active) in the assay on MCF7; > 59.4 µM (inactive) in the assay with UO-31; > 41.6 µM (inactive) in the assay on HL-60; > 45 µM (inactive) in the assay with CAKI-1.

`OCCCCCNc1c2ccccc2nc2ccccc12`: the GI50 in the assay on OVCAR-3 was 3.86 µM (inactive); in the assay with UACC-257, 2.02 µM (inactive); with MOLT-4 it was 2.4 µM (inactive); in the assay on COLO 205, 1.53 µM (inactive); in the assay with A498, 3.73 µM (inactive); in the assay with NCI-H522, 2.04 µM (inactive). Moreover, the GI50 with DU-145 is 3.02 µM (inactive); in the assay on SR, 1.37 µM (inactive); with MDA-MB-435, 2.68 µM (inactive); in the assay with SF-268 it was 2.75 µM (inactive); with Malme-3M, 1.9 µM (inactive); with MDA-MB-231 it was 2.74 µM (inactive). The GI50 in the assay on RXF 393 was 2.86 µM (inactive); in the assay with K562, 2.37 µM (inactive); in the assay on MCF7, 2.33 µM (inactive); in the assay on IGROV-1 it was 3.03 µM (inactive); in the assay with UO-31, 2.38 µM (inactive); in the assay with HL-60, 3.44 µM (inactive). Moreover, in the assay on CAKI-1, the GI50 was 2.91 µM (inactive).

In the case of `COC(=O)CN(CC(=O)NCCCBr)C1CCCCC1N(CC(=O)OC)CC(=O)OC` (centres undefined), the GI50 with OVCAR-3, in the assay on UACC-257, in the assay on MOLT-4, with COLO 205, in the assay on A498 and in the assay with NCI-H522 was > 100 µM (inactive) each time. Also, the GI50 in the assay on DU-145, in the assay with SR, with MDA-MB-435, with SF-268, in the assay with MDA-MB-231 and in the assay on K562 was > 100 µM (inactive) throughout. Besides, the GI50 is > 100 µM (inactive) with NCI-H226; > 100 µM (inactive) in the assay on MCF7; > 100 µM (inactive) in the assay on IGROV-1; 84.7 µM (inactive) in the assay with UO-31; > 100 µM (inactive) in the assay with HL-60; > 100 µM (inactive) in the assay with CAKI-1.

`CN(C)CCCN1c2ccccc2CCc2cccc([N+](=O)[O-])c21`: the GI50 with OVCAR-3 is 16.3 µM (inactive); with UACC-257 it was 20.4 µM (inactive); in the assay on MOLT-4, 13.7 µM (inactive); in the assay with COLO 205 it was 17.8 µM (inactive); with A498, 19.5 µM (inactive); in the assay with NCI-H522, 15.8 µM (inactive). Also, the GI50 in the assay on DU-145 was 17.4 µM (inactive); with SR, 13.6 µM (inactive); in the assay on MDA-MB-435, 16.7 µM (inactive); in the assay with SF-268, 23.5 µM (inactive); in the assay with Malme-3M it was 16.9 µM (inactive); in the assay with MDA-MB-231, 25.2 µM (inactive). The GI50 was 15.1 µM (inactive) in the assay with K562; 22.6 µM (inactive) in the assay on NCI-H226; 16.8 µM (inactive) in the assay on MCF7; 16.9 µM (inactive) in the assay with IGROV-1; 17.4 µM (inactive) in the assay with UO-31; 15.5 µM (inactive) in the assay on HL-60. The GI50 in the assay on CAKI-1 is 20 µM (inactive).

With `CC(C)=CCC[C@@H](C)C1=C(O)C(=O)C(C)=C(Nc2ccccc2F)C1=O`, the GI50 with OVCAR-3 is 4.1 µM (inactive); in the assay on UACC-257, 21.9 µM (inactive); in the assay with MOLT-4, 5.68 µM (inactive); in the assay on COLO 205, 23.4 µM (inactive); in the assay with A498, 16.6 µM (inactive); with DU-145, 23.9 µM (inactive). For the same compound, the GI50 was 28.1 µM (inactive) in the assay with SR; 36.7 µM (inactive) with MDA-MB-435; 9.77 µM (inactive) in the assay with SF-268; 10.2 µM (inactive) in the assay with Malme-3M; 28.4 µM (inactive) in the assay on MDA-MB-231; 12.7 µM (inactive) in the assay on RXF 393. Moreover, the GI50 in the assay with K562 is 9.62 µM (inactive); with NCI-H226 it was 17.9 µM (inactive); in the assay on MCF7, 24.8 µM (inactive); in the assay with IGROV-1, 32.6 µM (inactive); with UO-31 it was 12.9 µM (inactive); with HL-60 it was 2.28 µM (inactive). In addition, the GI50 with CAKI-1 is 16.1 µM (inactive).

For `COC(=O)C1=C(C)N2[C@H](C(=O)O)CO[C@@]2(C)[C@H](C(=O)OC)[C@H]1c1cccc([N+](=O)[O-])c1`, the GI50 with OVCAR-3, with UACC-257, in the assay on MOLT-4, in the assay on COLO 205, with A498 and in the assay on NCI-H522 was > 100 µM (inactive) throughout. Further, the GI50 with DU-145, with SR, with MDA-MB-435, with SF-268, with Malme-3M and with MDA-MB-231 was > 100 µM (inactive) in each case. In addition, the GI50 with RXF 393, in the assay with K562, in the assay on NCI-H226, with MCF7, in the assay on IGROV-1 and in the assay on UO-31 was > 100 µM (inactive) in each case. For the same compound, the GI50 with CAKI-1 is > 100 µM (inactive).

The values above are taken from ChEMBL document CHEMBL1201862, “PubChem BioAssay data set” (2004).
